Assay [1] has as its target T1, human recombinant adrenergic α2A receptor (Homo sapiens, UniProt P08913).
T1 construct: expressed in transfected cells; host or cells: insect Sf9 cells
T1 sequence (P08913 1-465): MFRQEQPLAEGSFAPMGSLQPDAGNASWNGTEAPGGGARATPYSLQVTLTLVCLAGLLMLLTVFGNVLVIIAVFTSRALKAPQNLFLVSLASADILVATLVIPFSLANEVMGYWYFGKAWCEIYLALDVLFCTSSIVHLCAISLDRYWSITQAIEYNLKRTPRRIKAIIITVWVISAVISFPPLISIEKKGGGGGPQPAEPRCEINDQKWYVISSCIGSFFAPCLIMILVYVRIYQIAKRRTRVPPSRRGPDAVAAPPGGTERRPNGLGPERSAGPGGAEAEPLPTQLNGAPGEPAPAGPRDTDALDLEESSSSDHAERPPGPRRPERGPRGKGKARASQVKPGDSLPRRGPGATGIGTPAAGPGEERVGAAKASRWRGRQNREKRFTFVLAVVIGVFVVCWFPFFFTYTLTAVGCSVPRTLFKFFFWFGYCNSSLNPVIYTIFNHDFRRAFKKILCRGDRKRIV
In words: Radioligand binding, adrenergic α2A ([3H]MK-912). The method, boiled down: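 Sf9 membranes, 1 nM [3H]MK-912, 60 min, 25 °C, Tris-HCl pH 7.4/MgCl2/EDTA buffer. NSB: 10 μM WB-4101. Filtration, counting; % inhibition of specific binding.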

Assay [2] has as its target T2, human recombinant adrenergic α2B receptor (Homo sapiens, UniProt P18089).
T2 construct: expressed in transfected cells; host or cells: CHO-K1
T2 sequence (P18089 1-450): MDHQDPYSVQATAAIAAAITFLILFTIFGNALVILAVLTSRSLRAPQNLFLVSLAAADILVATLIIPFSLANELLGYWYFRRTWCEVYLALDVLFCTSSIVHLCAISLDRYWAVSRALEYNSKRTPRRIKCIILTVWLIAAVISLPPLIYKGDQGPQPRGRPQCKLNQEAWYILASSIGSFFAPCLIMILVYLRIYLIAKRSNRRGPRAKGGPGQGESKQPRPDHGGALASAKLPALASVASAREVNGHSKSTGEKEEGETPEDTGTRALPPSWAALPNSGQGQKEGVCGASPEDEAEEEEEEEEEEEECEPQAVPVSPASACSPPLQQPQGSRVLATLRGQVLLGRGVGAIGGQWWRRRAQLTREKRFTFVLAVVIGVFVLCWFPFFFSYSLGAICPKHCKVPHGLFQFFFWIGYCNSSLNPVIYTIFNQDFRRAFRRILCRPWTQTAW
Kind of assay: Radioligand binding, adrenergic α2B ([3H]Rauwolscine). Conditions: for pKi: read-out: Ki α2B. The method, boiled down:
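Values are percent inhibition of specific radioligand binding. The receptor, expressed in CHO-K1 cells, was exposed to 2.5 nM [3H]Rauwolscine at 25° C for 60 min, with 10 μM Prazosin marking non-specific binding.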

Assay [3] concerns the target T3, rat adrenergic α1B receptor (Rattus norvegicus, UniProt P15823).
T3 construct: rat adrenergic α1B receptor obtained from Wistar Rat liver; from tissue; host or cells: Wistar rat liver
T3 sequence (P15823 1-515): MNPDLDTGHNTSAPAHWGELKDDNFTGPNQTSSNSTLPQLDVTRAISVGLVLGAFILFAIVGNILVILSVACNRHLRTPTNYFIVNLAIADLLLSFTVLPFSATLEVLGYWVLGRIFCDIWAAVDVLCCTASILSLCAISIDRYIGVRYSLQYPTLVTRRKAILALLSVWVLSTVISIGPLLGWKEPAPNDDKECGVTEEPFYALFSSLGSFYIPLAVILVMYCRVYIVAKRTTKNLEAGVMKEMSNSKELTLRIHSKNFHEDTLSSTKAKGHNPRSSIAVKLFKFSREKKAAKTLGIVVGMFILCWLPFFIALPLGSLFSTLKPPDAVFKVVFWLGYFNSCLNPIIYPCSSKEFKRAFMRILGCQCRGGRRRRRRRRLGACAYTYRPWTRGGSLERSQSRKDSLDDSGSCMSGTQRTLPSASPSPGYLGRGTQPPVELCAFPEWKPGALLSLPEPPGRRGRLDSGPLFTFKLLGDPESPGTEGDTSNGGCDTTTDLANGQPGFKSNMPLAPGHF
In words: Radioligand binding, adrenergic α1B ([3H]Prazosin). The method, boiled down: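 Specific binding, taken as total minus that remaining with 10 μM phentolamine, is measured after filtration and counting. Rat liver receptor preparation and 0.25 nM [3H]prazosin are incubated with compound in 50 mM Tris-HCl (pH 7.4, 0.5 mM EDTA) at 25° C for 60 min. Activity is reported as percent inhibition.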

Where [4] appears, read: compound at 0.1 μM, [3H]MK-912, repeat datapoints each shown, 0.1 µM.
Setting [5] is: compound at 0.03 μM, [3H]Rauwolscine, repeat datapoints each shown, 0.03 µM.
The mark [6] stands for this setting: compound at 0.1 μM, [3H]Prazosin, repeat datapoints each shown, 0.1 µM.
Where [7] appears, read: read-out: Percentage inhibition of ligand binding, Adrenergic α2A (0.1 μM), compound at 0.1 μM, [3H]MK-912, repeat datapoints each shown.
[8] abbreviates: read-out: Percentage inhibition of ligand binding, Adrenergic α2B (0.03 μM), compound at 0.03 μM, [3H]Rauwolscine, repeat datapoints each shown.
Setting [9] is: read-out: Percentage inhibition of ligand binding, Adrenergic α1B (0.1 μM), compound at 0.1 μM, [3H]Prazosin, repeat datapoints each shown.
Setting [10] is: compound at 0.1 μM, [3H]MK-912, repeat assays, each datapoint shown, read-out: Percentage inhibition of ligand binding, Adrenergic α2A.
Where [11] appears, read: compound at 0.03 μM, [3H]Rauwolscine, repeat assays, each datapoint shown, read-out: Percentage inhibition of ligand binding, Adrenergic α2B.
Where [12] appears, read: compound at 0.1 μM, [3H]Prazosin, repeat assays, each datapoint shown, read-out: Percentage inhibition of ligand binding, Adrenergic α1B.

This note sets out measurements from patent US8791132B2, “Compounds and methods for treatment of hypertension” (Medivation Technologies, Inc., priority 2011, dated 2014).

pKi: −log10 of the molar value. Several values for one entry are separate records, joined by “and”; a condition that tells them apart may be missing. Identical values can stand only once. Like-named read-outs stand apart in the source and are kept apart here.

In the case of `Cc1ccc2c(c1)c1c(n2CC(O)c2cc[nH]c(=O)c2)CCN2CCCC12` (single isomer, unassigned) [II-132a, 4-(2-(2,3,5,6-tetrahydro-10-methyl-1H-indolizino[7,8-b]indol-7(11cH)-yl)-1-hydroxyethyl)pyridin-2(1H)-one], in assay [1] (setting [4]), the “Percentage inhibition of ligand binding, Adrenergic α2A (0.1 μM)” value stood at 8%. Also, the “Percentage inhibition of ligand binding, Adrenergic α2B (0.03 μM)” value (from here on “Percentage inhibition … (0.03 μM)”) in assay [2] (setting [5]) was found to be 40%. The “Percentage inhibition of ligand binding, Adrenergic α1B (0.1 μM)” value in assay [3] (setting [6]) amounted to 33%.
A word on the inhibition: it is the drop in the measured response relative to a control, in per cent. As for `Cc1ccc2c(c1)c1c(n2CC(O)c2cnn(C)c2)CCN(C)C1` (stereo not drawn) [131a, 2-(1,2,3,4-tetrahydro-2,8-dimethylpyrido[4,3-b]indol-5-yl)-1-(1-methyl-1H-pyrazol-4-yl)ethanol], the inhibition at 0.1 µM worked out at 10% in assay [1] (setting [7]) and 24% in assay [3] (setting [9]). Besides, in assay [2] (setting [8]), the inhibition at 0.03 µM is 30%.
As to `CNC(Cn1c2c(c3cc(C)ccc31)CN(C)CC2)c1ccncc1` (single isomer, unassigned) [151a, 2-(1,2,3,4-tetrahydro-2,8-dimethylpyrido[4,3-b]indol-5-yl)-N-methyl-1-(pyridin-4-yl)ethanamine], the results for the inhibition at 0.1 µM in assay [1] (setting [7]) and in assay [3] (setting [9]) were 15% and 11%, respectively. For the same molecule, the “Percentage inhibition … (0.03 μM)” value in assay [2] (setting [5]) is given as 93%.
For the molecule `Cc1ccc2c(c1Cl)c1c(n2CC(C)(O)c2cccnc2)CCN(C)C1` (single isomer, unassigned) [II-124b, 1-(9-chloro-2,8-dimethyl-3,4-dihydro-1H-pyrido[4,3-b]indol-5(2H)-yl)-2-(pyridin-3-yl)propan-2-ol], in assay [1] (setting [4]), the “Percentage inhibition of ligand binding, Adrenergic α2A (0.1 μM)” value was 7%. For the same molecule, the “Percentage inhibition … (0.03 μM)” value in assay [2] (setting [5]) is given as 18%. In addition, in assay [3] (setting [6]), the “Percentage inhibition of ligand binding, Adrenergic α1B (0.1 μM)” value stood at 10%.
For orientation: pKi means −log10 of the Ki, conventionally taken in molar units. With `Cc1ccc2c(c1)c1c(n2CC(c2ccncc2)N(C)C)CCN(C)C1` (single isomer, unassigned) [150a], the inhibition at 0.1 µM in assay [1] (setting [7]) was 16%; in assay [2] (read-out: Percentage inhibition of ligand binding, Adrenergic α2B (0.1 μM), compound at 0.1 μM, [3H]Rauwolscine, repeat datapoints each shown) it was 100%; in assay [3] (setting [9]) it was 16%. In addition, the “Percentage inhibition … (0.03 μM)” value in assay [2] (setting [5]) was determined as 96%. Further, the pKi in assay [2] was 8.80. In addition, the inhibition at 0.03 µM in assay [2] (setting [8]) came to 88%.
Take `Cc1cnc2c(c1)c1c(n2CC(O)c2ccc(C#N)nc2)CCN(C)C1` (single isomer, unassigned) [II-114a, 5-[2-(3,6-dimethyl-5,6,7,8-tetrahydro-1,6,9-triaza-fluoren-9-yl)-1-hydroxy-ethyl]-pyridine-2-carbonitrile]: the “Percentage inhibition of ligand binding, Adrenergic α2A (0.1 μM)” value in assay [1] (setting [4]) turned out to be 12%. In addition, in assay [2] (setting [8]), the inhibition at 0.03 µM is 40%. The “Percentage inhibition of ligand binding, Adrenergic α1B (0.1 μM)” value in assay [3] (setting [6]) is 45%.
Turning to `CN1CCc2c(c3cc(OC(F)(F)F)ccc3n2CC(O)c2ccncc2)C1` (stereo not drawn) [II-67, 2-(2-methyl-8-trifluoromethoxy-1,2,3,4-tetrahydro-pyrido[4,3-b]indol-5-yl)-1-pyridin-4-yl-ethanol], the inhibition at 0.1 µM is -11% in assay [1] (0.1 μM compound, read-out: Percentage inhibition of ligand binding, Adrenergic α2A) and 7% in assay [3] (0.1 μM compound, read-out: Percentage inhibition of ligand binding, Adrenergic α1B). Besides, in assay [2] (0.03 μM compound, read-out: Percentage inhibition of ligand binding, Adrenergic α2B), the inhibition at 0.03 µM came to 43%.
In the case of `Cc1cnc2c(c1)c1c(n2CC(N)c2ccc(C#N)cc2)CCN(C)C1` (single isomer, unassigned) [159b], the “Percentage inhibition of ligand binding, Adrenergic α2A (0.1 μM)” value in assay [1] (setting [4]) was −12%. Further, the “Percentage inhibition … (0.03 μM)” value in assay [2] (setting [5]) is given as 52%. For the same molecule, in assay [3] (setting [6]), the “Percentage inhibition of ligand binding, Adrenergic α1B (0.1 μM)” value came to 53%.
For the molecule `Cc1cnc2c(c1)c1c(n2CC(C)(O)c2cccnc2)CCN2CCCC12` (single isomer, unassigned) [26b], the “Percentage inhibition of ligand binding, Adrenergic α2A” value in assay [1] (compound at 0.1 μM, [3H]MK-912, repeat assays, each datapoint shown, 0.1 µM) amounted to 12%. Further, in assay [2] (compound at 0.03 μM, [3H]Rauwolscine, repeat assays, each datapoint shown, 0.03 µM), the “Percentage inhibition of ligand binding, Adrenergic α2B” value was 75% and 88%. The inhibition at 0.1 µM in assay [2] (compound at 0.1 μM, [3H]Rauwolscine, repeat assays, each datapoint shown, read-out: Percentage inhibition of ligand binding, Adrenergic α2B) was 100%. In addition, in assay [2], the pKi is 8.51. In assay [3] (compound at 0.1 μM, [3H]Prazosin, repeat assays, each datapoint shown, 0.1 µM), the “Percentage inhibition of ligand binding, Adrenergic α1B” value is given as 15%.
For the molecule `CC(O)(Cn1c2c(c3cc(Cl)ccc31)CN(C1CCC1)CC2)c1cccnc1` (single isomer, unassigned) [II-118b], the “Percentage inhibition of ligand binding, Adrenergic α2A (0.1 μM)” value in assay [1] (setting [4]) amounted to 5%. Besides, the “Percentage inhibition … (0.03 μM)” value in assay [2] (setting [5]) is −3%. Besides, the “Percentage inhibition of ligand binding, Adrenergic α1B (0.1 μM)” value in assay [3] (setting [6]) stood at 11%.
As to `Cc1ccc2c(c1)c1c(n2CC(C)(O)c2cccnc2)CN(C)CC1` (stereo not drawn) [14b, 1-(2,6-dimethyl-1,2,3,4-tetrahydro-β-carbolin-9-yl)-2-pyridin-3-yl-propan-2-ol], the values for the inhibition at 0.1 µM in assay [1] (setting [10]) and in assay [3] (setting [12]) were -6% and 25%, respectively. Besides, the inhibition at 0.03 µM in assay [2] (setting [11]) came out at 14%.
In the same order, the values of `COc1ccc(C(C)(O)Cn2c3c(c4cc(C)ccc42)CN(C)CC3)cn1` (stereo not drawn) [compound 64, 1-(2,8-dimethyl-1,2,3,4-tetrahydro-pyrido[4,3-b]indol-5-yl)-2-(6-methoxy-pyridin-3-yl)-propan-2-ol] are 12%, 25% and 62%.
As for `Cc1ccc2c(c1)c1c(n2CC(N)c2ccncc2)CN(C)CC1` (stereo not drawn) [compound 153, 2-(2,6-dimethyl-3,4-dihydro-1H-pyrido[3,4-b]indol-9(2H)-yl)-1-(pyridin-4-yl)ethanamine], the inhibition at 0.1 µM in assay [1] (setting [7]) was 6%; in assay [3] (setting [9]), 17%. Also, the inhibition at 0.03 µM in assay [2] (setting [8]) is 17%.
In the case of `Cc1ccc2c(c1)c1c(n2CC(OC(=O)c2ccncc2)c2ccncc2)CCN(C)C1` (stereo not drawn) [compound 147, isonicotinic acid 2-(2,8-dimethyl-1,2,3,4-tetrahydro-pyrido[4,3-b]indol-5-yl)-1-pyridin-4-yl-ethylester], the “Percentage inhibition of ligand binding, Adrenergic α2A (0.1 μM)” value in assay [1] (setting [4]) came to 19%. In assay [2] (setting [5]), the “Percentage inhibition … (0.03 μM)” value was 91% and 102%. Besides, in assay [2], the pKi is 8.83. Moreover, the “Percentage inhibition of ligand binding, Adrenergic α1B (0.1 μM)” value in assay [3] (setting [6]) worked out at 7%.
In the case of `Cc1ccc2c(c1)c1c(n2CC(O)c2cccnc2)CCN(C)C1` (stereo not drawn) [compound 62], the inhibition at 0.1 µM in assay [1] (setting [10]) came out at 1%; in assay [3] (setting [12]), 16%. Further, the inhibition at 0.03 µM in assay [2] (setting [11]) turned out to be 76%.
